Results taken from article PMC13503280, “A pharmacological modality to sequester homomeric proteins” (Nature Chemical Biology, 2026).

What was measured:
Keap1 and BCL6 [1] = biological target: T1, Keap1 and BCL6 (Homo sapiens, UniProt P41182+Q14145); assay: WB of Keap1 and BCL6 in OCI-AML2 cells (hetero-PINCH); assay type: cell-based; parameters: endogenous in cells; host or cells: OCI-AML2; conditions: 20 h
Experimental: (§1) Cells were incubated with DMSO at 0.1% or with compound in concentrations ranging 10–20,000 nM for 20 h unless indicated differently. Following incubation, lysis was performed in RIPA buffer and the samples were measured for total protein quantification by BCA assay (Thermo Fisher Scientific, 23225). Then, 20–40 μg of each sample was loaded and run on an SDS–PAGE gel, before transferring onto a nitrocellulose membrane using a Trans-Blot Turbo system (Bio-Rad) and blocking using a 5% BSA in TBS-T (w/v) solution for 1 h at room temperature. Incubation with primary antibodies (mouse anti-BCL-6 (sc-7388, Santa Cruz, 1:500; overnight at 4 °C), mouse anti-Keap1 (sc-365626, Santa Cruz, 1:500; overnight at 4 °C), rabbit anti-LDHA (4H18L6, Thermo Fisher, 1:1,000; overnight at 4 °C), mouse anti-NQO2 (sc-271665, Santa Cruz, 1:500; overnight at 4 °C), rabbit anti-c-Myc (5605, Cell Signaling, 1:1,000; overnight at 4 °C) and mouse anti-β-actin (3700, Cell Signaling, 1:1,000; 1 h at room temperature) was performed and then the membranes were washed and incubated with a horseradish-peroxidase-conjugated secondary antibody (mouse 7076/rabbit 7074, Cell Signaling) at room temperature for 1 h. Imaging of the chemiluminescence signal was performed using a ChemiDoc XRS+ instrument (Bio-Rad). Primary band quantifications were normalized against β-actin bands.

Keap1 and BCL6 [2] = biological target: T1, Keap1 and BCL6; assay: WB of Keap1 and BCL6 in Mino cells (hetero-PINCH); assay type: cell-based; parameters: Mino cells that express high levels of BCL6; endogenous in cells; host or cells: Mino; OCI-AML2; conditions: 20 h
Experimental: as §1

Keap1 = Keap1 (Homo sapiens, UniProt Q14145); assay: WB of Keap1 in HEK 293 cells (hetero-PINCH); assay type: cell-based; parameters: endogenous in cells; host or cells: HEK 293 (ATCC CRL-1573); conditions: HEK 293 cells (does not express BCL6), 20 h
Experimental: as §1

LDHA [3] = biological target: T2, LDHA (Homo sapiens, UniProt P00338); assay: Immunostaining of LDHA in U2OS cells; assay type: cell-based; parameters: endogenous in cells; host or cells: U2OS (ATCC HTB-96); conditions: 5µM, 20 hours
Experimental: For spinning disk confocal microscopy, cells were allowed to adhere to a 14-mm glass-bottom plate (MatTek P35G-1.5-14-C), followed by fixation with 3.7% formaldehyde for 5 min and permeabilization with 0.1% Triton X-100 for 10 min. The cells were then blocked with 5% BSA for 60 min at room temperature. Cells were stained with primary antibody, at a concentration of 1:100, for 3 h at room temperature and were then subjected to a secondary antibody conjugated to Alexa Fluor, at a concentration of 1:100–500, for 1 h at room temperature. Lastly, cells were also stained with DAPI for 10 min at room temperature.

LDHA [4] = biological target: T2, LDHA; assay: DLS of recombinant LDHA; assay type: biochemical; parameters: The gene encoding full-length WT human LDHA was cloned into pET28; His6 tag followed by a tobacco etch virus protease cleavage site (N); made in house; host or cells: Escherichia coli BL21(DE3); conditions: room temperature, over time
Experimental: DLS samples were prepared in the respective protein’s elution buffer, to which 0.01% Tween was added, along with the compound from a DMSO stock to obtain a final DMSO concentration of 2%. Samples were prepared at room temperature and measured at a constant temperature of 25 °C. All samples were passed through 0.1-μm filters and then placed in a clear-bottom black 384-well plate. DLS data were recorded using a DynaproPlate Reader III (Wyatt Technology). Data were processed with the supplied DYNAMICS software.

BCL6(1–275)–GFP = biological target: T3, BCL6(1–275)–GFP (Homo sapiens, UniProt P41182); assay: BCL6(1–275)–GFP puncta in HEK 293 cells; assay type: cell-based; conditions: HEK 293 cells overexpressing BCL6(1–275)–GFP
T3 construct: HEK 293 cells expressing GFP fused to BCL6 (residues 1–275); host or cells: HEK 293
Experimental: Automatic aggregate segmentation was conducted using the surface module with manual threshold fixed for all images of the same experiment (default 2-pixel smoothing, background subtraction with 0.9-μm largest sphere, morphological split with 0.5-μm seed point diameter). Analysis was conducted per cell by manually selecting regions covering the individual cell and not overlapping with neighboring cells.

[5] = biological target: T4, recombinant BCL6 BTB domain (Homo sapiens, UniProt P41182); assay: Intact protein LC–MS labeling of BCL6 BTB domain; assay type: binding; conditions: 2 μM protein, 10 μM compound, incubation 90 min
T4 construct: The BCL6 BTB domain (5–129) was cloned into the pET28-bdSumo vector; His–bdSumo (N, cleaved yes); made in house; host or cells: E. coli BL21(DE3) (as described for Keap1 BTB)
Source text: A covalent inhibitor of BCL6 that irreversibly binds a tyrosine residue in the BTB domain dimeric interface was previously reported. […] Importantly, the linker had to be long enough to minimize potential steric clashes between bridged homodimers yet short enough to forbid intramolecular binding of subunits from the same homodimer.
Extended Data Fig. 1 SAR of BCL6 targeting PINCHs. a. […] Representative results from 3 independent experiments, and c. These compounds’ structures. Source data

HEK 293 cells = assay: Viability measurements, HEK 293 cells; assay type: cell-based; conditions: HEK 293 cells (lack BCL6 expression), 72 h
Experimental: Cells were seeded in a transparent-bottom, black 96-well plate, at 15,000 cells per well in sixfold replications. in 90 µl of medium and left to adhere for at least 4 h. The cells were then treated with the respective compound by adding 10 µl of medium–-compound mixture for a final volume of 100 µl in each well. Cell-Titer blue reagent was used to measure viability according to the manufacturer’s instructions. Plate reader measurements were performed on a Tecan Spark Control 10 M fluorescence system.

Keap1, sequence (Q14145 whole entry): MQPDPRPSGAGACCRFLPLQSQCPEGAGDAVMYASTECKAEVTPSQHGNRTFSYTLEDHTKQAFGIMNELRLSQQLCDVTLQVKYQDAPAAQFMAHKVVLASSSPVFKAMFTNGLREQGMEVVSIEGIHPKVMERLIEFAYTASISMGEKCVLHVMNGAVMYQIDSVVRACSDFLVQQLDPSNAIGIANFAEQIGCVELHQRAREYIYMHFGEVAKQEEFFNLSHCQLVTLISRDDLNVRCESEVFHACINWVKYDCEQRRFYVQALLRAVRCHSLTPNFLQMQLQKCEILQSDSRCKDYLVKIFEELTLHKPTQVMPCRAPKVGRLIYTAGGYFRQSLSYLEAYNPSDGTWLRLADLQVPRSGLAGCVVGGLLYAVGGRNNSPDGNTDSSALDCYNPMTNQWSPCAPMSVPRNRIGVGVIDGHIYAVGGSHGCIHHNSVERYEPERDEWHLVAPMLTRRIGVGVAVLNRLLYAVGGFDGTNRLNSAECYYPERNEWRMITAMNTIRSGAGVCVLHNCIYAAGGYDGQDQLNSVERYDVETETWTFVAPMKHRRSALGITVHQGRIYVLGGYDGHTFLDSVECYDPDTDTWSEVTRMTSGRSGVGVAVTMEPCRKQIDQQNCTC

COc1cc(Nc2cc(NCc3cccc(S(=O)(=O)F)c3)ccc2Cl)cc2cc(OCC(=O)NCCOCCOCCOCCOCCOCCOCCOCCOCCOCCOCCOCCOCCNC(=O)[C@]34CCC(C)(C)C[C@H]3[C@H]3C(=O)C=C5[C@@]6(C)C=C(C#N)C(=O)C(C)(C)[C@@H]6CC[C@@]5(C)[C@]3(C)CC4)c(=O)n(C)c12 [EL230]
Keap1 and BCL6 levels (WB) (Keap1 and BCL6 [1]): Keap1 and BCL6 were downregulated simultaneously | Keap1 and BCL6 levels in soluble/insoluble phase (WB) (Keap1 and BCL6 [2]): reduction in both Keap1 and BCL6 levels in the soluble phase | Keap1 level (WB) (Keap1): Keap1 remained unchanged

Cc1nc2ccc(NC(=O)CC(NC(=O)CCCc3ccc(CC(C(=O)O)C(=O)O)cc3)C(=O)NCCOCCOCCOCCOCCNC(=O)C(CC(=O)Nc3ccc4nc(C)sc4c3)NC(=O)CCCc3ccc(CC(C(=O)O)C(=O)O)cc3)cc2s1 (centres unmarked) [OS-47B]
LDHA localization (immunostaining) (LDHA [3]): no effect on LDHA localization | formation of larger species (DLS) (LDHA [4]): formation of larger species over time

CNC(=O)COc1cc2cc(Nc3cc(NCc4cccc(S(=O)(=O)F)c4)ccc3Cl)cc(OC)c2n(C)c1=O [w8001]
BCL6–GFP puncta formation (BCL6(1–275)–GFP): no such puncta | labeling of recombinant BCL6 BTB domain by intact protein LC–MS [5]: 100% | effect on viability (HEK 293 cells): no compound affected the viability
